This is an account of results in ChEMBL document CHEMBL3046636, “Synthesis and anti-juvenile hormone activity of ethyl 4-(2-aryloxyhexyloxy)benzoates” (2006).

Assay [1] has as its system Bombyx mori. As to the kind of experiment: Induction of precocious metamorphosis in newly molted fourth-instar larvae of Bombyx mori assessed as precocious metamorphosis measured after topical treatment. It counts as functional, organism-based.
The test system of assay [2] is Bombyx mori. The experiment in a line: Induction of precocious metamorphosis in 24 hr old third-instar larvae of Bombyx mori assessed as precocious metamorphosis at 40 ug/larva topically by antijuvenile hormone activity assay. Format: functional.
In assay [3] the test system is Bombyx mori. The experiment in a line: Induction of precocious metamorphosis in 24 hr old third-instar larvae of Bombyx mori assessed as precocious metamorphosis at 10 ug/larva topically by antijuvenile hormone activity assay. Format: functional.
Assay [4] deals with Bombyx mori. As to the kind of experiment: Induction of precocious metamorphosis in 24 hr old third-instar larvae of Bombyx mori assessed as precocious metamorphosis at 1 ug/larva topically by antijuvenile hormone activity assay. Format: functional.
The test system of assay [5] is Bombyx mori. As to the kind of experiment: Induction of precocious metamorphosis in 24 hr old third-instar larvae of Bombyx mori assessed as precocious metamorphosis at 200 ppm dietary administration by antijuvenile hormone activity assay. Format: functional.
Assay [6] relates to Bombyx mori. The experiment in a line: Induction of precocious metamorphosis in 24 hr old third-instar larvae of Bombyx mori assessed as precocious metamorphosis at 50 ppm dietary administration by antijuvenile hormone activity assay. Format: functional.

The source made the active and inactive calls. No cut-off for these calls is given here.

Regarding `CCCCC(COc1ccc(C(=O)OCC)cc1)Oc1cccnc1` (stereo not given), the outcome in assay [1] was inactive. The Activity in assay [2] was found to be 57%; in assay [3], 47%; in assay [4], 10%.

Regarding `CCCCC(COc1ccc(C(=O)OCC)cc1)Oc1cccc(C)c1` (stereo not given), in assay [1], the result was inactive. Besides, the results for the Activity in assay [2], in assay [3] and in assay [4] were 55%, 5% and 0%, respectively.

Consider `CCCCC(COc1ccc(C(=O)OCC)cc1)Oc1ccccc1` (stereo not given), for which the Activity in assay [5] is given as 75%; in assay [6], 25%; in assay [2], 70%; in assay [3], 66%; in assay [4], 32%. In addition, the outcome in assay [1] was inactive.

For `CCCCC(COc1ccc(C(=O)O)cc1)Oc1ccccc1` (stereo not given), the Activity in assay [5] and in assay [6] was 0% in each case.

Regarding `CCCCC(COc1ccc(C(=O)OCC)cc1)Oc1cccc(Cl)c1` (stereo not given), in assay [1], the outcome was inactive. The Activity came to 75% in assay [2], 45% in assay [3] and 25% in assay [4].

Regarding `CCCCC(COc1ccc(C(=O)OCC)cc1)Oc1ccccc1Cl` (stereo not given), the outcome in assay [1] was inactive. In addition, the Activity in assay [3] and in assay [4] was 0% each time.

On to `CCCCC(COc1ccc(C(=O)OCC)cc1)Oc1ccc(C)nc1` (stereo not given), for which, in assay [1], the result was inactive. Moreover, the Activity in assay [2] is on record as 75%; in assay [3], 20%; in assay [4], 20%.

For the molecule `CCCCC(COc1ccc(C(=O)OCC)cc1)Oc1ccccc1C` (stereo not given), the outcome in assay [1] was inactive. The Activity is 10% in assay [3] and 0% in assay [4].

For `CCCCC(COc1ccc(C(=O)OCC)cc1)Oc1ccncc1` (stereo not given), in assay [1], the result was inactive. The Activity in assay [3] and in assay [4] was 0% throughout.

On to `CCCCC(COc1ccc(C(=O)OCC)cc1)Oc1ccc(Cl)cc1` (stereo not given), for which the outcome in assay [1] was inactive. The figures for the Activity in assay [3] and in assay [4] were 30% and 0%, respectively.

`CCCCC(COc1ccc(C(=O)OCC)cc1)Oc1ccc(C)cc1` (stereo not given): in assay [1], the outcome was inactive. The Activity in assay [2] was 58%; in assay [3] it was 45%; in assay [4], 5%.
